Measurements reported in patent publication US20200331904A1, “3-AMINO-[1,2,4]-TRIAZOLE DERIVATIVES AND THEIR USE FOR CONTROLLING UNDESIRED PLANT GROWTH” (Bayer CropScience Aktiengesellschaft, priority 2017, published 2020).

Legend:
Format in all cases: in vivo
[1] = system: Setaria viridis; experiment: Pre-emergence herbicidal efficacy, SETVI; conditions: Table B1, application rate 320 g/ha, scored visually after about 3 weeks vs untreated controls
Outline: (§1)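 Visual percent activity relative to untreated plants (0% = like control, 100% = dead), scored about 3 weeks after treatment under greenhouse conditions.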

[2] = system: Veronica persica; experiment: Pre-emergence herbicidal efficacy, VERPE; conditions: Table B1, application rate 320 g/ha, scored visually after about 3 weeks vs untreated controls
Outline: as §1

[3] = system: harmful plants; experiment: Post-emergence herbicidal action; conditions: applied post-emergence
Description: (§2) C.2 Post-Emergence Herbicidal Action and Crop Plant Compatibility
(§3) Seeds of monocotyledonous and dicotyledonous weeds and crop plants are placed in sandy loam in plastic or organic planting pots, covered with soil and cultivated in a greenhouse under controlled growth conditions. 2 to 3 weeks after sowing, the test plants are treated at the one-leaf stage. The compounds of the invention, formulated in the form of wettable powders (WP) or as emulsion concentrates (EC), are then sprayed onto the green parts of the plants as aqueous suspension or emulsion with addition of 0.5% additive at a water application rate of […] (converted). After the test plants had been kept in the greenhouse under optimum growth conditions for about 3 weeks, the activity of the preparations is rated visually in comparison to untreated controls. For example, 100% activity=the plants have died, 0% activity=like control plants.

[4] = system: Echinochloa crus-galli; experiment: Pre-emergence herbicidal efficacy, ECHCG; conditions: Table B1, application rate 320 g/ha, scored visually after about 3 weeks vs untreated controls
Outline: as §1

[5] = system: Amaranthus retroflexus; experiment: Pre-emergence herbicidal efficacy, AMARE; conditions: Table B1, application rate 320 g/ha, scored visually after about 3 weeks vs untreated controls
Outline: as §1

[6] = system: Stellaria media; experiment: Pre-emergence herbicidal efficacy, STEME; conditions: Table B1, application rate 320 g/ha, scored visually after about 3 weeks vs untreated controls
Outline: as §1

[7] = system: Amaranthus retroflexus; experiment: Post-emergence herbicidal efficacy, AMARE; conditions: application rate 320 g/ha, rated visually after about 3 weeks
Text: (§4) ABUTH: Abutilon theophrasti ALOMY: Alopecurus myosuroides AMARE: Amaranthus retroflexus AVEFA: Avena fatua CYPES: Cyperus esculentus ECHCG: Echinochloa crus-galli LOLMU: Lolium multiflorum MATIN: Matricaria inodora PHBPU: Ipomoea purpurea POLCO: Polygonum convolvulus SETVI: Setaria viridis STEME: Stellaria media VERPE: Veronica persica VTOTR: Viola tricolor
as §2, §3

[8] = system: Veronica persica; experiment: Post-emergence herbicidal efficacy, VERPE; conditions: application rate 320 g/ha, rated visually after about 3 weeks (Table B5)
Text: as §4, §2, §3

[9] = system: Lolium rigidum; experiment: Post-emergence herbicidal efficacy, LOLRI; conditions: application rate 320 g/ha, rated visually after about 3 weeks
Description: as §2, §3

[10] = system: Abutilon theophrasti; experiment: Pre-emergence herbicidal efficacy, ABUTH; conditions: Table B1, application rate 320 g/ha, scored visually after about 3 weeks vs untreated controls
Outline: as §1

[11] = system: Echinochloa crus-galli; experiment: Post-emergence herbicidal efficacy, ECHCG; conditions: application rate 320 g/ha, rated visually after about 3 weeks
Text: as §4, §2, §3

[12] = system: Polygonum convolvulus; experiment: Pre-emergence herbicidal efficacy, POLCO; conditions: Table B1, application rate 320 g/ha, scored visually after about 3 weeks vs untreated controls
Outline: as §1

[13] = system: Matricaria inodora; experiment: Pre-emergence herbicidal efficacy, MATIN; conditions: Table B1, application rate 320 g/ha, scored visually after about 3 weeks vs untreated controls
Outline: as §1

[14] = system: Stellaria media; experiment: Post-emergence herbicidal efficacy, STEME; conditions: application rate 320 g/ha, rated visually after about 3 weeks
Text: as §4, §2, §3

[15] = system: Viola tricolor; experiment: Post-emergence herbicidal efficacy, VIOTR; conditions: application rate 320 g/ha, rated visually after about 3 weeks (Table B5)
Text: as §4, §2, §3

[16] = system: Viola tricolor; experiment: Pre-emergence herbicidal efficacy, VIOTR; conditions: Table B1, application rate 320 g/ha, scored visually after about 3 weeks vs untreated controls
Outline: as §1

[17] = system: Lolium rigidum; experiment: Pre-emergence herbicidal efficacy, LOLRI; conditions: Table B1, application rate 320 g/ha, scored visually after about 3 weeks vs untreated controls
Outline: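 Seeds sown in pots and covered with soil. Greenhouse-grown about 3 weeks, then visually scored as % activity vs untreated controls (100% = dead, 0% = like control).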

| SMILES | Herbicidal efficacy against SETVI [1] | Herbicidal efficacy against VERPE [2] | herbicidal efficacy against harmful plants [3] | Herbicidal efficacy against ECHCG [4] | Herbicidal efficacy against AMARE [5] | Herbicidal efficacy against STEME [6] | Herbicidal efficacy against AMARE [7] | Herbicidal efficacy against VERPE [8] | Herbicidal efficacy against LOLRI [9] | Herbicidal efficacy against ABUTH [10] | Herbicidal efficacy against ECHCG [11] | Herbicidal efficacy against POLCO [12] | Herbicidal efficacy against MATIN [13] | Herbicidal efficacy against STEME [14] | Herbicidal efficacy against VIOTR [15] | Herbicidal efficacy against VIOTR [16] | Herbicidal efficacy against LOLRI [17] |
| --- | --- | --- | --- | --- | --- | --- | --- | --- | --- | --- | --- | --- | --- | --- | --- | --- | --- |
| Cc1ccc2c(c1)C(Nc1nc3n(n1)CCCCS3)CC2 (stereo not shown) [Example I-248] | 100% | 100% | very good herbicidal efficacy | 100% | 100% | 100% | 90% | 90% | 100% | 100% | 100% | 100% | 100% | 100% | 90% | 100% | 100% |
| Cc1ccc2c(c1)[C@H](Nc1nc3n(n1)CCCCS3)CC2 [Example I-353] | 100% | 100% | very good herbicidal efficacy | 100% | 100% | 100% | 90% | 90% | 100% | 100% | 100% | 100% | 100% | 100% | 80% | 100% | 100% |
| Cc1ccc2c(c1)C(Nc1nc3n(n1)CCCCS3)C(C)C2 (stereo not shown) [Example I-354] | 100% | 100% | – | 100% | 100% | 100% | 80% | 100% | 100% | 100% | 100% | 100% | 100% | 100% | 80% | 100% | 100% |
| c1ccc2c(c1)CCC[C@H]2Nc1nc2n(n1)CCCCS2 [Example I-355] | 100% | 100% | – | 100% | 100% | 100% | 80% | 80% | – | 100% | 100% | 100% | 100% | 100% | 80% | 100% | 80% |
| Cc1ccc2c(c1)C(Nc1nc3n(n1)CCCCS3(=O)=O)C(C)C2 (stereo not shown) [Example I-366] | 100% | 100% | – | 100% | 100% | 100% | 80% | – | 90% | 100% | 100% | 100% | 100% | 90% | – | 100% | 100% |
| Cc1ccc2c(c1)[C@H](Nc1nc3n(n1)CCCCS3)CCC2 [Example I-402] | 100% | 100% | – | 100% | 100% | 100% | 90% | 90% | – | 100% | 100% | 100% | 100% | 90% | 90% | 100% | 100% |
